How the values were obtained:
[1] = test system: BT-474; experiment: normalised viability (% of control), CellTiter-Blue; higher = more viable cells (about 100 = DMSO control); details: 100 nM; incubation time: 72 h
Procedure, shortened: (§1)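 Plates were quality-checked by Z'-factor and normalised to vehicle (100) and a positive kill control (0). The underlying assay incubated breast cancer cell lines for 72 h on 384-well plates with compound, then added 2.5 µl CellTiter-Blue for 2 h at 37 °C and read at 560/590 nm. The value is normalised viability at a single listed concentration of the series.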

[2] = test system: BT-549; experiment: as above; details: 100 nM; incubation time: 72 h
Procedure, shortened: as §1

[3] = test system: DU-4475; experiment: as above; details: 10 nM; incubation time: 72 h
Procedure, shortened: as §1

[4] = test system: HCC1599; experiment: as above; details: 100 nM; incubation time: 72 h
Procedure, shortened: as §1

[5] = test system: HDQ-P1; experiment: as above; details: 10 nM; incubation time: 72 h
Procedure, shortened: as §1

[6] = test system: MDA-MB-231; experiment: as above; details: 100 nM; incubation time: 72 h
Procedure, shortened: as §1

[7] = test system: MDA-MB-436; experiment: as above; details: 100 nM; incubation time: 72 h
Procedure, shortened: as §1

[8] = test system: MDA-MB-453; experiment: as above; details: 10 nM; incubation time: 72 h
Procedure, shortened: as §1

[9] = test system: MFM-223; experiment: as above; details: 100 nM; incubation time: 72 h
Procedure, shortened: as §1

[10] = test system: BT-474; experiment: drug sensitivity score (DSS), CellTiter-Blue viability (DSS (AUC-based score)); higher = stronger viability inhibition; extreme values may be limits of the assay; details: incubation time: 72 h
Experimental: (§2)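 DSRT with the CellTiter-Blue (resazurin reduction) viability readout, fluorescence 560/590 nm, 72 h incubation. Plates were normalised to DMSO and benzethonium chloride controls. DSS is computed from the area under the fitted dose-response curve (5 or 9 concentrations).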

[11] = test system: BT-549; experiment: as above; details: incubation time: 72 h
Experimental: as §2

[12] = test system: CAL-120; experiment: as above; details: incubation time: 72 h
Experimental: as §2

[13] = test system: CAL-148; experiment: as above; details: incubation time: 72 h
Experimental: as §2

[14] = test system: CAL-51; experiment: as above; details: incubation time: 72 h
Experimental: as §2

[15] = test system: CAL-85-1; experiment: as above; details: incubation time: 72 h
Experimental: as §2

[16] = test system: DU-4475; experiment: as above; details: incubation time: 72 h
Experimental: as §2

[17] = test system: HCC1143; experiment: as above; details: incubation time: 72 h
Experimental: as §2

[18] = test system: HCC1599; experiment: as above; details: incubation time: 72 h
Experimental: as §2

[19] = test system: HCC1937; experiment: as above; details: incubation time: 72 h
Experimental: as §2

[20] = test system: HDQ-P1; experiment: as above; details: incubation time: 72 h
Experimental: as §2

[21] = test system: Hs578T; experiment: as above; details: incubation time: 72 h
Experimental: as §2

[22] = test system: MDA-MB-231; experiment: as above; details: incubation time: 72 h
Experimental: as §2

[23] = test system: MDA-MB-436; experiment: as above; details: incubation time: 72 h
Experimental: as §2

[24] = test system: MDA-MB-453; experiment: as above; details: incubation time: 72 h
Experimental: as §2

[25] = test system: MDA-MB-468; experiment: as above; details: incubation time: 72 h
Experimental: as §2

[26] = test system: MFM-223; experiment: as above; details: incubation time: 72 h
Experimental: as §2

[27] = test system: SK-BR-3; experiment: as above; details: incubation time: 72 h
Experimental: as §2

## C[C@]12CC[C@@H]3c4ccc(O)cc4C[C@@H](CCCCCCCCC[S+]([O-])CCCC(F)(F)C(F)(F)F)[C@H]3[C@@H]1CC[C@@H]2O (stereo partly specified) [Fulvestrant]
[1]
  normalised viability: 89.2%
[2]
  normalised viability: 94.8%
[3]
  normalised viability: 105%
[4]
  normalised viability: 113%
[5]
  normalised viability: 93.3%
[6]
  normalised viability: 79.9%
[7]
  normalised viability: 103%
[8]
  normalised viability: 81.3%
[9]
  normalised viability: 70.4%
[10]
  drug sensitivity score: 0
[11]
  drug sensitivity score: 0
[12]
  drug sensitivity score: 0
[13]
  drug sensitivity score: 0
[14]
  drug sensitivity score: 0
[15]
  drug sensitivity score: 0
[16]
  drug sensitivity score: 0
[17]
  drug sensitivity score: 0
[18]
  drug sensitivity score: 0
[19]
  drug sensitivity score: 0
[20]
  drug sensitivity score: 0
[21]
  drug sensitivity score: 0
[22]
  drug sensitivity score: 0
[23]
  drug sensitivity score: 0
[24]
  drug sensitivity score: 0
[25]
  drug sensitivity score: 0
[26]
  drug sensitivity score: 1.05
[27]
  drug sensitivity score: 0

## O=P1(NCCCl)OCCCN1CCCl (stereo unspecified) [Ifosfamide]
[1]
  normalised viability: 120%
[2]
  normalised viability: 115%
[3]
  normalised viability: 110%
[4]
  normalised viability: 108%
[5]
  normalised viability: 125%
[6]
  normalised viability: 108%
[7]
  normalised viability: 95.3%
[8]
  normalised viability: 99.8%
[9]
  normalised viability: 81.2%
[10]
  drug sensitivity score: 0
[11]
  drug sensitivity score: 0
[12]
  drug sensitivity score: 0
[13]
  drug sensitivity score: 0
[14]
  drug sensitivity score: 0
[15]
  drug sensitivity score: 0
[16]
  drug sensitivity score: 0
[17]
  drug sensitivity score: 0
[18]
  drug sensitivity score: 0
[19]
  drug sensitivity score: 0
[20]
  drug sensitivity score: 0
[21]
  drug sensitivity score: 0
[22]
  drug sensitivity score: 0
[23]
  drug sensitivity score: 0
[24]
  drug sensitivity score: 0
[25]
  drug sensitivity score: 0
[26]
  drug sensitivity score: 0
[27]
  drug sensitivity score: 0

## CC(C)Cn1cnc2c(N)nc3ccccc3c21 [Imiquimod]
[1]
  normalised viability: 101%
[2]
  normalised viability: 96.1%
[3]
  normalised viability: 93.5%
[4]
  normalised viability: 103%
[5]
  normalised viability: 99.5%
[6]
  normalised viability: 87.4%
[7]
  normalised viability: 85.6%
[8]
  normalised viability: 112%
[9]
  normalised viability: 91.2%
[10]
  drug sensitivity score: 0
[11]
  drug sensitivity score: 0
[12]
  drug sensitivity score: 0
[13]
  drug sensitivity score: 0
[14]
  drug sensitivity score: 0
[15]
  drug sensitivity score: 0
[16]
  drug sensitivity score: 0
[17]
  drug sensitivity score: 0
[18]
  drug sensitivity score: 0
[19]
  drug sensitivity score: 0
[20]
  drug sensitivity score: 0
[21]
  drug sensitivity score: 0
[22]
  drug sensitivity score: 0
[23]
  drug sensitivity score: 0
[24]
  drug sensitivity score: 0.443
[25]
  drug sensitivity score: 0
[26]
  drug sensitivity score: 0
[27]
  drug sensitivity score: 0

Source: the supplement of paper PMC4862054
